Measurements as given in patent US20120053115A1, “Lantibiotic Carboxyamide Derivatives With Enhanced Antibacterial Activity” (Sentinella Pharmaceuticals, Inc., priority 2008, published 2012).

Columns and labels:
[1] = test system: Escherichia coli (code 47); conditions: 0.02% albumine bovine serum, read after 24 h
Experimental: (§1) MICs were performed using the broth microdilution methodology following the NCCLS procedure (NCCLS Document M7-A4 Vol. 17 No. 2 January 1997) in presence of 0.02% albumine bovine serum with inocula of approximately 5×10^5 cfu/mL. The media employed included cation-adjusted Mueller-Hinton (MH) broth (Difco Laboratories, Detroit, Mich., USA) supplemented or not with 30% (v/v) bovine serum. Tests were read after 24 h incubation at 25-37° C.

[2] = test system: S. haemolyticus Met-S (code 1730); conditions: 0.02% albumine bovine serum, read after 24 h
Experimental: as §1

[3] = test system: Staphylococcus aureus VISA (code 3798); conditions: S. aureus VISA code 3798; 0.02% albumine bovine serum; read after 24 h
Experimental: as §1

[4] = test system: S. pyogenes (code 49); conditions: 0.02% albumine bovine serum, read after 24 h
Experimental: as §1

[5] = test system: E. faecalisVanA (code 560); conditions: E. faecalis VanA code 560; 0.02% albumine bovine serum; read after 24 h
Experimental: as §1

[6] = test system: C. albicans ATCC 90028 (code 145); conditions: 0.02% albumine bovine serum, read after 24 h
Experimental: as §1

[7] = test system: E. faecalisVanS (code 559); conditions: E. faecalis VanS code 559; 0.02% albumine bovine serum; read after 24 h
Experimental: as §1

[8] = test system: S. epidermidis ATCC12228 (code 147); conditions: 0.02% albumine bovine serum, read after 24 h
Experimental: as §1

[9] = test system: S. haemolyticus Met-R (code 1729); conditions: 0.02% albumine bovine serum, read after 24 h
Experimental: as §1

[10] = test system: Enterococcus faecium VanS (code 568); conditions: E. faecium VanS code 568; 0.02% albumine bovine serum; read after 24 h
Experimental: as §1

[11] = test system: Staphylococcus aureus VISA Met-R (code 3797); conditions: S. aureus VISA Met-R code 3797; 0.02% albumine bovine serum; read after 24 h
Experimental: as §1

[12] = test system: E. faecium VanA (code 569); conditions: 0.02% albumine bovine serum, read after 24 h
Experimental: as §1

## C=C1NC(=O)[C@H](C(C)C)NC(=O)[C@H](NC(=O)/C(=C/C)NC(=O)[C@@H](N)[C@@H](C)CC)CSC[C@@H](C(=O)N[C@H]2C(=O)N3CCC[C@H]3C(=O)NCC(=O)N[C@H](C(=O)N[C@H](C(=O)N[C@@H]3CSC[C@@H]4NC(=O)CNC(=O)[C@@H](CSC[C@@H]5NC(=O)[C@H](Cc6c[nH]cn6)NC(=O)[C@@H](CSC[C@@H](C(=O)NCCCN(C)C)NC5=O)NC4=O)NC(=O)CNC(=O)CNC(=O)CNC(=O)[C@H](CCC(=O)NCCCN(C)C)NC3=O)[C@@H](C)O)CS[C@H]2C)NC(=O)[C@H](Cc2c[nH]c3ccccc23)NC1=O [Compound 3]
[1]
  Minimal Inhibitory Concentrations: >128 µg/mL
[2]
  Minimal Inhibitory Concentrations: <0.125 µg/mL
[3]
  Minimal Inhibitory Concentrations: 0.50 µg/mL
[4]
  Minimal Inhibitory Concentrations: 2 µg/mL
[5]
  Minimal Inhibitory Concentrations: 4 µg/mL
[6]
  Minimal Inhibitory Concentrations: 64 µg/mL
[7]
  Minimal Inhibitory Concentrations: 4 µg/mL
[8]
  Minimal Inhibitory Concentrations: 2 µg/mL
[9]
  Minimal Inhibitory Concentrations: 1 µg/mL
[10]
  Minimal Inhibitory Concentrations: 2 µg/mL
[11]
  Minimal Inhibitory Concentrations: 1 µg/mL
[12]
  Minimal Inhibitory Concentrations: 1 µg/mL
